Data published in the NIST ThermoML archive (doi:10.1016/j.jct.2014.08.023).
± gives the expanded uncertainty stated by the source.

Settings: Liquid, Vibrating tube method

CC(C)OC(C)C [diisopropyl ether]
mass density [kg/m3]
Settings	293.15 K	298.15 K	313.15 K	333.15 K
100 kPa	723.5 ± 0.7	718.3 ± 0.7	702.4 ± 0.7	680.4 ± 0.7
1000 kPa	724.3 ± 0.7	719.5 ± 0.7	703.7 ± 0.7	682 ± 0.7
5000 kPa	729.1 ± 0.7	724.5 ± 0.7	709.3 ± 0.7	688.8 ± 0.7
10000 kPa	734.5 ± 0.7	730.2 ± 0.7	715.7 ± 0.7	696.3 ± 0.8
15000 kPa	739.6 ± 0.8	735.6 ± 0.8	721.6 ± 0.8	703.1 ± 0.8
20000 kPa	744.5 ± 0.8	740.5 ± 0.8	727.1 ± 0.8	709.3 ± 0.8
25000 kPa	749 ± 0.8	745.2 ± 0.8	732 ± 0.8	715 ± 0.8
30000 kPa	753.3 ± 0.8	749.6 ± 0.8	737.1 ± 0.8	720.4 ± 0.8
35000 kPa	757.4 ± 0.8	753.7 ± 0.8	741.5 ± 0.8	725.5 ± 0.9
40000 kPa	761.3 ± 0.8	757.7 ± 0.9	745.8 ± 0.9	730.2 ± 0.9
45000 kPa	765 ± 0.9	761.6 ± 0.9	749.9 ± 0.9	–
50000 kPa	768.6 ± 0.9	765.2 ± 0.9	753.8 ± 0.9	–
55000 kPa	772.1 ± 0.9	768.7 ± 0.9	757.6 ± 0.9	–
60000 kPa	775.4 ± 0.9	772.1 ± 0.9	761.3 ± 1	–
65000 kPa	778.6 ± 1	775.4 ± 1	764.8 ± 1	–
70000 kPa	781.7 ± 1	778.5 ± 1	768.1 ± 1	–
80000 kPa	787.6 ± 1	784.5 ± 1	774.3 ± 1	–
90000 kPa	793.2 ± 1.1	790.3 ± 1.1	780.4 ± 1.1	–
100000 kPa	798.5 ± 1.1	795.6 ± 1.1	786 ± 1.1	–
110000 kPa	803.6 ± 1.1	800.8 ± 1.1	791.4 ± 1.2	–
120000 kPa	808.4 ± 1.2	805.6 ± 1.2	796.4 ± 1.2	–
130000 kPa	812.9 ± 1.2	810.3 ± 1.2	801.3 ± 1.3	–
140000 kPa	817.3 ± 1.2	814.6 ± 1.3	806 ± 1.3	–
